Measured values: patent publication US9359372B2, “Hexahydrodibenzo[a,g]quinolizine compound, preparation method thereof, pharmaceutical composition and use thereof” (SHANGHAI INSTITUTE OF MATERIA MEDICA, CHINESE ACADEMY OF …, priority 2011, dated 2016)

Columns and labels:
[1] = target: dopamine D1 receptor (Macaca mulatta (Rhesus macaque), UniProt O77680); test: Affinity on dopamine D1 receptor, competition with [3H] SCH23390; type: binding; parameters: D1 receptor inhibition ratio (%): concentration or dose not given beside the values; conditions: for affinity on dopamine D1 receptor (in words): summary of the tables
Chain of dopamine D1 receptor (O77680 whole entry): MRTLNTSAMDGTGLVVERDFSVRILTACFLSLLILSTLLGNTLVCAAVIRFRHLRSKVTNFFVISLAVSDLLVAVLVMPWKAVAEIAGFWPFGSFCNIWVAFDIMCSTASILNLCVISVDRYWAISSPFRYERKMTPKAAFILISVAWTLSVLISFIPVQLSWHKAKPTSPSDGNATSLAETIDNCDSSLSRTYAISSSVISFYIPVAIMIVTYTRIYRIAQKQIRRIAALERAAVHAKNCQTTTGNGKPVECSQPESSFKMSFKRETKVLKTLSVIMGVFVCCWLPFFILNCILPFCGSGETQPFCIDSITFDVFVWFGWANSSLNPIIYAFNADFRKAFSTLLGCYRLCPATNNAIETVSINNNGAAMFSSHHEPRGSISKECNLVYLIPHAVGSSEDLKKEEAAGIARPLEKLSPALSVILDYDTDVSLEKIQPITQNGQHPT
Method: (§1) (1). Determination of the Affinity of Hexahydrodibenzo[a,g]Quinolizine Compound of General Formula I and Derivatives Thereof on Dopamine D1, Dopamine D2, 5-HT1A, and 5-HT2A Receptor.
(§2) 1) The Experimental Method
(§3) Different concentrations (10^−5 M-10^−11 M) of the compound of the invention and corresponding isotope receptor ligand as well as receptor protein were loaded into the reaction tube and incubated in 30° C. water bath for 60 minutes. The reaction was terminated in a refrigerator. The reaction mixture was put in a Millipore filter (millipore) cell sample collector, filtered through suction filtration using GF/C glass fiber filter paper, and dried. The resulting sample was placed into 0.5 mL tube. 500 μL liquid scintillation fluid was added and intensity of radioactivity was determined by counting.
(§4) (1) Construction of receptor and materials for cell culture: Escherichia coli. DH5α strain; insect virus transfer vector pVL1393 plasmid; BaculoGold linear Chinese baculovirus DNA, purchased from ParMingen company; mkD1RcDNA; rD2R cDNA; various restriction endonucleases, TaqDNA polymerase, T4 ligase, etc., LB medium; insect cell culture TNM-FH.
(§5) (2) the Experimental Materials for Receptor Binding
(§6) Firstly, the above […] are dissolved in DMSO and then diluted with double distilled water to the appropriate concentration (10^−5 M-10^−11 M).
(§7) (+) Butaclamo purchased from RBI company, GF/C glass fiber filter paper purchased from Whatman Co., scintillation fluid (dopamine D1, D2 receptors)/liposoluble scintillation fluid (5-HT1A, 5-HT2A receptor), Beckman LS-6500 multi-function liquid scintillation counter.

[2] = target: D2 dopamine receptor (Rattus norvegicus (Rat), UniProt P61169); test: Affinity on dopamine D2 receptor, competition with [3H] Spiperone; type: binding; parameters: D2 receptor inhibition ratio (%): concentration or dose not given beside the values; conditions: for affinity on dopamine D2 receptor (in words): summary of the tables
Chain of D2 dopamine receptor (P61169 whole entry): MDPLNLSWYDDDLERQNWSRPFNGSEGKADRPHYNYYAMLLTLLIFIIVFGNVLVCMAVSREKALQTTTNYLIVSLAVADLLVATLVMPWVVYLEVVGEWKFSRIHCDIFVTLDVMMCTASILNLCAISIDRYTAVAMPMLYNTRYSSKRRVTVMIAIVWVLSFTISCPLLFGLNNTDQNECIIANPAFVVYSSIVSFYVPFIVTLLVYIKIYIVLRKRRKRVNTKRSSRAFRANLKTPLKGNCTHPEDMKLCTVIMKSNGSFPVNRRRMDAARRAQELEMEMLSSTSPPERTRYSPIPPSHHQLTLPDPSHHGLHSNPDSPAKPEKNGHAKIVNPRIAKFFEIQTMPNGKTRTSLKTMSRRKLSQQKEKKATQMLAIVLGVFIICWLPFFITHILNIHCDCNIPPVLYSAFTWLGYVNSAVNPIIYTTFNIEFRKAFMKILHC
Method: as §1, §2, §3, §4, §5, §6, §7

[3] = target: T1, dopamine D2 receptor (Homo sapiens (Human), UniProt P14416); test: Inhibition property on dopamine D2 receptor, cAMP detection in CHO cells stably expressing D2 receptor; type: cell-based; conditions: 10 μM Forskoline and 10 μM dopamine, read-out: D2 receptor Antagonist IC50
T1 sequence (P14416 whole entry, species assumed): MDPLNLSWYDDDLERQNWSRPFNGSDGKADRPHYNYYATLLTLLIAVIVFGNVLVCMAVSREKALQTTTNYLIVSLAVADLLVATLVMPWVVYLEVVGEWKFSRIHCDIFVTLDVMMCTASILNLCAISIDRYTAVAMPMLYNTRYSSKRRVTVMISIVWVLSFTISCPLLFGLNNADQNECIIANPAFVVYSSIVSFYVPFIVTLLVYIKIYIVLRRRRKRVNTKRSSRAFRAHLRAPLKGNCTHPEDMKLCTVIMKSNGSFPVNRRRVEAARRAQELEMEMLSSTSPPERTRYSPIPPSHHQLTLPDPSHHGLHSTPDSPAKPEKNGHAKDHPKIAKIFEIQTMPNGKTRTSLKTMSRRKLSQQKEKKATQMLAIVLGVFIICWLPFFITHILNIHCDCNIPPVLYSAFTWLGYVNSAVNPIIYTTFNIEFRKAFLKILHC
Method: 2. Determination of the Inhibition Property of Hexahydrodibenzo[a,g]Quinolizine Compound of General Formula I and Derivatives Thereof on Dopamine D2 Receptor.
(1) The Experimental Method
Each medicament was dissolved in serum-free F12 culture medium containing 100 μM of IBMX. CHO cells which can stably express D2 receptor were pre-incubated at 37° C. for 10 min, and then 10 μM Forskoline and 10 μM Dopanie were added at the same time to react for 10 min. 100 μL, of pre-cooled 1 M of HClO4 was added and the reaction was terminated at 4° C. for 1 hour. 20 μL of 2 M K2CO3 was added to neutralize the reaction. […] A certain amount of the supernatant was taken for cAMP detection.

[4] = target: D1 dopamine receptors (Homo sapiens (Human), UniProt P21728); test: Radioligand binding assay, D1 receptor, HEK293T membrane homogenates; conditions: HEK293T membranes, [3H]SCH23390
Chain of D1 dopamine receptors (P21728 whole entry): as the sequence (O77680 whole entry) above, with I311N counted along it
Method: (§8) The affinity of compounds to D1 and D2 dopamine receptors were determined by competition binding assays. Membrane homogenates of HEK293T cells were stably transfected with D1, or D2 receptors. […] The reaction was started by addition of membranes ([…]) and stopped by rapid filtration through Whatman GF/B glassfiber filter and subsequently washed with cold buffer (50 mM Tris, 5 mM EDTA, pH 7.4) using a Brandel 24-well cell harvester. Scintillation cocktail was added and the radioactivity was determined in a MicroBeta liquid scintillation counter. The IC50 and Ki values were calculated by nonlinear regression (PRISM, Graphpad, San Diego, Calif.) using a sigmoidal function.

[5] = target: T1, dopamine D2 receptor; test: Radioligand binding assay, D2 receptor, HEK293T membrane homogenates; parameters: D2 Inhibition (%): concentration or dose not given beside the values; conditions: HEK293T membranes, [3H]Spiperone
Method: as §8

[6] = target: D1 receptor (Homo sapiens (Human), UniProt P21728); test: [35S]GTPγS binding assay for D1 receptor; type: biochemical
Chain of D1 receptor (P21728 whole entry): as the sequence (O77680 whole entry) above, with I311N counted along it

[7] = target: 5-HT1A receptor (Homo sapiens (Human), UniProt P08908); test: Affinity on 5-HT1A receptor, competition with [3H] 8-OH-DPAT; type: binding
Chain of 5-HT1A receptor (P08908 whole entry): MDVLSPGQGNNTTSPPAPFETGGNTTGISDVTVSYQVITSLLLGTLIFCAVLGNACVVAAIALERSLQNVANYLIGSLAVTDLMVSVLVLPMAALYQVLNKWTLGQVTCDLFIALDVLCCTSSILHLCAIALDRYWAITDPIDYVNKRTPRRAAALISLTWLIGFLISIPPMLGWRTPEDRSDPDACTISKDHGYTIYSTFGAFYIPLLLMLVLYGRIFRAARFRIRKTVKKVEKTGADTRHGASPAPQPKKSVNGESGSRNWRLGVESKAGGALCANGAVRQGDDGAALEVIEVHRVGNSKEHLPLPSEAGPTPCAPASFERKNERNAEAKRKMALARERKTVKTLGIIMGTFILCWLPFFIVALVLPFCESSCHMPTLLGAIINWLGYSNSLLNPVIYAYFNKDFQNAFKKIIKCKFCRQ
Method: as §1, §2, §3, §5
8-OH-DPAT; 5-HT1A receptor protein expressed in HEK-293 cells;
as §6, §7

| D1 receptor inhibition ratio (%) [1] [%] | IC50 [1] [nM] | Ki [1] [nM] | D2 receptor inhibition ratio (%) [2] [%] | Ki [4] [nM] | Structure (SMILES) | further results |
| --- | --- | --- | --- | --- | --- | --- |
| 94.5 | 684 | 338 | 97.4 |  | COc1cc2c(cc1OC)[C@@H]1Cc3cc(C)cc(C)c3CN1CC2 [DC037017, S-(−)-2,3-bimethoxy-9,11-dimethyl-5,8,13,13a-tetrahydro-6H-dibenzo[a,g]quinolizine] | IC50 [2]: 1160 nM; Ki [2]: 224 nM; IC50 [3]: 16200 nM |
| 97.79 | 142 | 74.5 | 1.02 | 64.1 ± 4.43 | COc1cc2c(c(OC)c1)CN1CCc3cc4c(cc3[C@@H]1C2)OCO4 [DC037078, (S)-2,3-methylenedioxy-9,11-bimethoxy-5,8,13,13a-tetrahydro-6H-dibenzo[a,g]quinolizine] | D2 Inhibition (%) [5]: 39.50% |
| 98.0 | 370 | 247 | 75.75 |  | COc1cc2c(cc1OC)C1Cc3c(OC)ccc(OC)c3CN1CC2 (racemic) [DC037003, (±)-2,3,9,12-tetramethoxy-5,8,13,13a-tetrahydro-6H-dibenzo[a,g]quinolizine] | IC50 [3]: 3300 nM |
| 91.94 |  |  | 13.75 |  | Cc1ccc(C)c2c1CC1c3cc4c(cc3CCN1C2)OCO4 (stereo not drawn) [DC037033, S-(−)-2,3-methylenedioxy-9,12-dimethyl-5,8,13,13a-tetrahydro-6H-dibenzo[a,g]quinolizine] |  |
| 99.99 | 9.85 | 5.18 | 76.21 | 2.53 ± 0.16 | COc1cc2c(c(OC)c1)CN1CCc3cc(OC)c(O)cc3[C@@H]1C2 [DC037079, (S)-2-hydroxy-3,9,11-trimethoxy-5,8,13,13a-tetrahydro-6H-dibenzo-[a,g]quinolizine] | affinity on dopamine D1 receptor (in words) [1]: strong affinity; affinity on dopamine D2 receptor (in words) [2]: strong affinity; D2 Inhibition (%) [5]: 83.31%; D1 antagonist Imax % ([6]; [35S]GTPγS binding): 94.2 ± 1.5%; IC50 ([6]; [35S]GTPγS binding, read-out: D1 antagonist IC50): 1400 ± 200 nM; D1 receptor antagonistic activity (in words) ([6]; summary of Table 10): D1 receptor antagonistic activity; D1 receptor selectivity (in words) ([6]; summary of Table 10): good D1 receptor selectivity |
| 91.75 | 648 | 320 | 48.0 |  | COc1cc2c(cc1OC)[C@@H]1Cc3cc(OC)c(OC)c(OC)c3CN1CC2 [DC037006, S-(−)-2,3,9,10,11-pentamethoxyl-5,8,13,13a-tetrahydro-6H-dibenzo[a,g]quinolizine] |  |
| 98.99 | 56.4 | 28.9 | 90.10 | 28.9 ± 2.73 | COc1cc2c(cc1O)[C@@H]1Cc3cc(C)cc(C)c3CN1CC2 [DC037031, S-(−)-2-hydroxy-3-methoxy-9,11-dimethyl-5,8,13,13a-tetra-hydro-6H-dibenzo[a,g]quinolizine] | affinity on dopamine D1 receptor (in words) [1]: strong affinity; IC50 [2]: 456 nM; Ki [2]: 161 nM; affinity on dopamine D2 receptor (in words) [2]: strong affinity; Ki [5]: 161 ± 21.1 nM |
|  | 484 | 248 |  |  | COc1ccc(OC)c2c1C[C@H]1c3cc4c(cc3CCN1C2)CCO4 [DC037034, S-(+9,12-bimethoxy-2,3,5,8,13,13a-hexahydro-8H-benzo[3,2,a,g]furanquinolizine] | Ki [7]: 497 nM |
| 91.3 | 1500 | 741 | 76.2 |  | COc1cc2c(cc1OC)CN1CCc3cc(O)c(O)cc3C1C2 (racemic) [DC037024, (±)-2,3-bihydroxy-10,11-bimethoxy-5,8,13,13a-tetrahydro-6H-dibenzo[a,g]quinolizine] | IC50 [3]: 591 nM |
| 77.95 |  |  | 27.05 |  | COc1cc2c(cc1OC)C1Cc3cc(OC)c(OC)c(OC)c3CN1CC2 (racemic) [DC037002, (±)-2,3,9,10,11-pentamethoxyl-5,8,13,13a-tetrahydro-6H-dibenzo[a,g]quinolizine] |  |
| 56.5 |  |  | 44.5 |  | COc1cc2c(cc1OC)CN1CCc3cc4c(cc3C1C2)OCO4 (racemic) [DC037021, (±)-2,3-methylenedioxy-10,11-bimethoxy-5,8,13,13a-tetrahydro-6H-dibenzo[a,g]quinolizine] |  |
| 58.2 |  |  | 25.8 |  | COc1cc2c(cc1OC)C1Cc3cc4c(cc3CN1CC2)OCO4 (racemic) [DC037014, (±)-2,3-bimethoxy-10,11-methylenedioxy-5,8,13,13a-tetrahydro-6H-dibenzo[a,g]quinolizine] |  |
| 95.5 | 763 | 377 | 66.2 |  | COc1cc2c(c(OC)c1OC)CN1CCc3cc4c(cc3[C@@H]1C2)OCO4 [DC037016, S-(−)-2,3-methylenedioxy-9,10,11-bimethoxy-5,8,13,13a-tetra-hydro-6H-dibenzo[a,g]quinolizine] |  |
| 99.32 | 14.7 | 7.51 | 63.94 |  | COc1c(O)ccc2c1CN1CCc3cc4c(cc3[C@@H]1C2)OCCO4 [DC037082, S-(−)-2,3-bimethylenedioxy-9-methoxyl-10-hydroxy-5,8,13,13a-tetrahydro-6H-dibenzo[a,g]quinolizine] | affinity on dopamine D1 receptor (in words) [1]: strong affinity; affinity on dopamine D2 receptor (in words) [2]: strong affinity |
|  |  |  |  |  | Oc1cc2c(cc1O)C(c1ccccc1)CNCC2 (centres unmarked) [SKF38393, reference compound] | Emax ([6]; [35S]GTPγS binding, read-out: D1 agonist Emax %): 100% |
| 22.60 |  |  | 73.07 | 17.3 ± 0.54 | COc1c(O)ccc2c1CN1CCc3cc4c(cc3[C@@H]1C2)OCC4 [DC037081, S-(−)-9-methoxyl-10-hydroxy-2,3,5,8,13,13a-hexahydro-8H-benzo[3,2,a,g]furanquinolizine] | Ki [5]: 147 ± 10.2 nM |
|  |  |  |  | 74.5 ± 3.85 | COc1cc2c(cc1OC)[C@@H]1Cc3c(CO)c(OC)cc(OC)c3CN1CC2 [DC037076, (S)-2,3,9,11-tetramethoxy-12-hydroxymethyl-5,8,13,13a-tetra-hydro-6H-dibenzo[a,g]quinolizine] | D2 Inhibition (%) [5]: 1.02% |
| −13.6 |  |  | 0.35 |  | COc1ccc2c(c1)CCN1Cc3cc(OC)c(OC)cc3CC21 (racemic) [DC037009, (±)-3,10,11-trimethoxy-5,8,13,13a-tetrahydro-6H-dibenzo[a,g]quinolizine] |  |
| 99.68 | 13.3 | 6.72 | 84.30 | 6.72 ± 0.34 | COc1ccc(OC)c2c1C[C@H]1c3cc(O)c(O)cc3CCN1C2 [DC037035, S-(−)-2,3-bihydroxy-9,12-bimethoxy-5,8,13,13a-tetrahydro-6H-dibenzo[a,g]quinolizine] | affinity on dopamine D1 receptor (in words) [1]: strong affinity; affinity on dopamine D2 receptor (in words) [2]: strong affinity; D2 Inhibition (%) [5]: 84.30% |
| 47.3 |  |  | 57.1 |  | COc1cc2c(cc1OC)[C@@H]1Cc3cc4c(cc3[C@H](C)N1CC2)OCO4 [DC037020, (8S,14S)-2,3-bimethoxy-8-methyl-10,11-methylenedioxy-5,8,13,13a-tetrahydro-6H-dibenzo[a,g]quinolizine] |  |
